The source made the active and inactive calls.

In ChEMBL document CHEMBL1201862, “PubChem BioAssay data set” (2004) one finds EC50, IC50 and AC50 data, which are given here for seven compounds.

Assay [1] concerns the target T1, Heat shock factor protein 1 (Mus musculus, UniProt P38532).
T1 sequence (P38532 whole entry): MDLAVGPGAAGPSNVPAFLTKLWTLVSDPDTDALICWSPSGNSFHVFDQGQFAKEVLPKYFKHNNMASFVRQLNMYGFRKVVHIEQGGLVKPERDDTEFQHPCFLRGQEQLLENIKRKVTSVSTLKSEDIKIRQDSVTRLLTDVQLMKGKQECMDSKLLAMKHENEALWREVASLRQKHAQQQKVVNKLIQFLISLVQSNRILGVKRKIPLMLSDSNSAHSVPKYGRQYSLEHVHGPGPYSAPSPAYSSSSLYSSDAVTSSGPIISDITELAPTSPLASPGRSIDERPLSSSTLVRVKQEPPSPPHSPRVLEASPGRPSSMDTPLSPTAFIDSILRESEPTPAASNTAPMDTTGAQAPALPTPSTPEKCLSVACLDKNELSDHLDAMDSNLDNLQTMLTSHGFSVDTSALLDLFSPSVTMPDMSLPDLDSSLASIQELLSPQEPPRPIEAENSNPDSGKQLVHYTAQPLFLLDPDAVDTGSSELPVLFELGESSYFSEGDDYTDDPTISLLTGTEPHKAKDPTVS
Description: HSF1 potentiators in luciferase reporter cells, confirmation, cell-based, NIH3T3, luminescence, dose retest (AID 435004).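 Note: stress induced by proteasome inhibitor MG132 added 30 min after compound; luciferase reporter driven by HSF1 response element in NIH3T3 cells; actives raise luminescence as potentiators of the MG132 stress response.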 The class given is functional. (In general: In a reporter assay the amount or activity of a reporter protein is the signal.)

Assay [2] is described as follows: Luminescence-based cell-based high throughput dose response assay to identify activators of the DAF-12 from the parasite S. stercoralis (ssDAF-12). It counts as functional.
Assay [3] has as its target T2, Oxysterols receptor LXR-beta (Homo sapiens, UniProt P55055).
T2 sequence (P55055 whole entry): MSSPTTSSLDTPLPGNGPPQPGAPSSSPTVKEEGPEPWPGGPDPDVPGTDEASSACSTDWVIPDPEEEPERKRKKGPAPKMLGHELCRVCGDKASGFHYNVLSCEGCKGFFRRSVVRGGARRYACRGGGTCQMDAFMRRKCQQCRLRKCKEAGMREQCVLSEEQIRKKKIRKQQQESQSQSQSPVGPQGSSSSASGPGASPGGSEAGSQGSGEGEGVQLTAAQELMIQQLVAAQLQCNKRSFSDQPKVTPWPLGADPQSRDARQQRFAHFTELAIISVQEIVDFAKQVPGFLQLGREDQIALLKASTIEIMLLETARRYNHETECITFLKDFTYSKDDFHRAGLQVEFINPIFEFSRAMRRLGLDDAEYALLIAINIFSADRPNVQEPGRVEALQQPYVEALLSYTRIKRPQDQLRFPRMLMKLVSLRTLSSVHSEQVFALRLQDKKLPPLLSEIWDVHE
The assay can be described thus: LXR agonists, Gal4 luciferase reporter, dose response, counter-screen for ssDAF-12 agonist project, cell-based, luminescence, HEK293, S. stercoralis campaign (AID 720737). The class given is functional. Conditions: read-out: IC50 (the source's name).

A further assay addresses Estrogen receptor beta (Homo sapiens, UniProt Q92731). Description: ERβ–SRC-3 coactivator interaction inhibitors, confirmation, orthogonal assay, biochemical, ELISA, streptavidin-HRP readout (AID 1060). (ELISA stands for enzyme-linked immunosorbent assay.)
The target in another assay is Cytochrome P450 2C9 (Homo sapiens, UniProt P11712). The following applies: Potency.
Cytochrome P450 2C9, sequence (P11712 whole entry): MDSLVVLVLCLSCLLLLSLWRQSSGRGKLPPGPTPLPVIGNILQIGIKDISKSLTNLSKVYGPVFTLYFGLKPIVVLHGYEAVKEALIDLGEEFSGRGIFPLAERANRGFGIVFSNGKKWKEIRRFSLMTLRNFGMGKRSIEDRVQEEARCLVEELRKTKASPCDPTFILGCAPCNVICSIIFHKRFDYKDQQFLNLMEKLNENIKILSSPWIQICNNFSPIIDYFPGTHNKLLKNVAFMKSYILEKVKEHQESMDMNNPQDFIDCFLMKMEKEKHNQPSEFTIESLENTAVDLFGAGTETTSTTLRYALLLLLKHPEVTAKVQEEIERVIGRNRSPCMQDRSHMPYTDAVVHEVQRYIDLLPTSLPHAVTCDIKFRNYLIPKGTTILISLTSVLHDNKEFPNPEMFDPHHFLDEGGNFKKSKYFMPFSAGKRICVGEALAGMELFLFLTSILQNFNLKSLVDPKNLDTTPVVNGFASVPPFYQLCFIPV
The nature of assay [4]: growth suppression of PTEN-null colon cells, dose response, cell-based, HCT116 PTEN knockout (AID 1047).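 Note: HCT116 colon tumor cells with PTEN knocked out; cells exposed to compound for 60 hours before readout; potency for loss of cell viability measured by luminescence.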 The class given is functional.
Assay [5] is described as follows: growth suppression of beta-catenin-knockout colon cells, dose response, cell-based, HCT116, human colon tumor (AID 1045).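 Note: HCT116 colon tumor cells with beta catenin knocked out; cells exposed to compound for 60 hours.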 The class given is functional.
Assay [6] addresses T3, Mannose-6-phosphate isomerase (Homo sapiens, UniProt P34949).
T3 sequence (P34949 whole entry): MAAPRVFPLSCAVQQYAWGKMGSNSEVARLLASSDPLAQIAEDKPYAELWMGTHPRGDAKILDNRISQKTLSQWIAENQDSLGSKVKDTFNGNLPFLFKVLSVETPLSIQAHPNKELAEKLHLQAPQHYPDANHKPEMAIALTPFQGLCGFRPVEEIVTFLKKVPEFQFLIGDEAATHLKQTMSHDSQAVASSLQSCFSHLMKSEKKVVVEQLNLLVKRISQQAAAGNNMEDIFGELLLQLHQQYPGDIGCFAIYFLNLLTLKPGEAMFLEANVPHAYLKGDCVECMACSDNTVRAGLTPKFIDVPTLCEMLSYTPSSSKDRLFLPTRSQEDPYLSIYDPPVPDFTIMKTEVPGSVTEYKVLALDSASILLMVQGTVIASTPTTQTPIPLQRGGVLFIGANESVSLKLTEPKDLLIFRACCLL
The assay can be described thus: human PMI inhibitors, high substrate, primary screen, biochemical, fluorescence intensity, high mannose 6-phosphate (AID 1220).

The target of assay [7] is T4, Replicative DNA helicase DnaB (Mycobacterium tuberculosis, UniProt P9WMR3).
T4 sequence (P9WMR3 whole entry): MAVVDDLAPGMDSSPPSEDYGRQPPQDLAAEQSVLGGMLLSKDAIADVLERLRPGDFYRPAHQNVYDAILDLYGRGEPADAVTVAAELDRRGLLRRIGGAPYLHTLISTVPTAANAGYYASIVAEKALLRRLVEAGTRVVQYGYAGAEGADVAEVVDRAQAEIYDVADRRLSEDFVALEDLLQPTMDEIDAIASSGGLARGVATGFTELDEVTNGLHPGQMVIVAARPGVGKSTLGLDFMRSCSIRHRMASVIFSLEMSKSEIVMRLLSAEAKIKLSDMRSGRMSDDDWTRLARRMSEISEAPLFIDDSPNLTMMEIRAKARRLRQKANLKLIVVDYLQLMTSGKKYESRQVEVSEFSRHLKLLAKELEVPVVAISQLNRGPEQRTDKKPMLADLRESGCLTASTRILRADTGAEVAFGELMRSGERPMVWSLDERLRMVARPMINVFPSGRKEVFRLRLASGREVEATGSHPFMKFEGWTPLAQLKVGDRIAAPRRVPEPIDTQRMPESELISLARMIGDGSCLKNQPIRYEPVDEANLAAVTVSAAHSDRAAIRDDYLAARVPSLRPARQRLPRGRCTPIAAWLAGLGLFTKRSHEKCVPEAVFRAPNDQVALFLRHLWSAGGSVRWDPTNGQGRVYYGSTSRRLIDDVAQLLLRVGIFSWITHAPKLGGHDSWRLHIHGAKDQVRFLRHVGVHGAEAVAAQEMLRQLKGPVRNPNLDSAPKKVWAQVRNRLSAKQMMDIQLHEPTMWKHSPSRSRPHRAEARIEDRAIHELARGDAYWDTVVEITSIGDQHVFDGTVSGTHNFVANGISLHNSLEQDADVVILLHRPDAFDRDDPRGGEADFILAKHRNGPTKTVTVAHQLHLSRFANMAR
The assay can be described thus: DnaB intein splicing inhibitors, dose response, biochemical, cell-free fluorescence (AID 449749). It counts as functional.

Another assay concerns the target T5, Protein RecA (Mycobacterium tuberculosis, UniProt P9WHJ3).
T5 sequence (P9WHJ3 whole entry): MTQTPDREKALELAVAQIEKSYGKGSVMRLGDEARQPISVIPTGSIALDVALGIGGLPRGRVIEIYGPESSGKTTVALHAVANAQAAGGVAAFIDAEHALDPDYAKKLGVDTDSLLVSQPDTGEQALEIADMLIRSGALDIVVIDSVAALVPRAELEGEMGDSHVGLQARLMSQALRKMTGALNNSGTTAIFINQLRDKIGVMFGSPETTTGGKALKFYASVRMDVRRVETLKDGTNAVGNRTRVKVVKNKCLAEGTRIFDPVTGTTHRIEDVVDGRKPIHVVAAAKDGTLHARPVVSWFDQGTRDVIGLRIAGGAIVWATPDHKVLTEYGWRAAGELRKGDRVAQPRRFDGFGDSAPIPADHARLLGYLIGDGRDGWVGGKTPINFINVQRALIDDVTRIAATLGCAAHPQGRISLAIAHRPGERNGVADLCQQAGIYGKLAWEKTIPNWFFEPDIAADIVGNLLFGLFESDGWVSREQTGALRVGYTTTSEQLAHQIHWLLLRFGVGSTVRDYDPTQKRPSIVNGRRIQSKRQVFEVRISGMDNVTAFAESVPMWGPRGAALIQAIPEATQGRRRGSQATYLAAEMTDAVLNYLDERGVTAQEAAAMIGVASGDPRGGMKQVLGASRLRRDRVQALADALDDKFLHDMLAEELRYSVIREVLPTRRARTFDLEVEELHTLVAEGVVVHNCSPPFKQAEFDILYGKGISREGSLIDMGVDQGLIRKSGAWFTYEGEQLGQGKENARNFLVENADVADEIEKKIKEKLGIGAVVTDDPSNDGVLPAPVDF
The assay can be described thus: Fluorescence Cell-Free Homogeneous Dose Retest to Identify Inhibitors of RecA-Intein Splicing Activity. [Related pubchem assays (depositor defined):AID2097, AID2223, AID489010, AID492950]. The class given is functional.

A short description of assay [8]: cytotoxicity in HPDE-C7 cells, cell-based, fluorescence, HTS (AID 430). The class given is functional. The following applies: Homo sapiens.
Assay [9] is described as follows: cytotoxicity in KRAS-transformed pancreatic duct cells, primary screen, cell-based, fluorescence, HTS (AID 431).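 Note: cell line used: HPDE-C7K.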 The class given is functional. The following applies: Homo sapiens.
A further assay concerns the target Cytochrome P450 2C19 (Homo sapiens, UniProt P33261). Description: qHTS Assay for Inhibitors and Substrates of Cytochrome P450 2C19. [Related pubchem assays: 410 ]. The class given is ADME. Conditions: read-out: Potency.
Assay [10] in a line: Luminescence Cell-Based Dose Retest to Confirm Inhibitors of Cancer Stem Cells. [Related pubchem assays (depositor defined):AID2717, AID2721]. The class given is functional. Conditions: Homo sapiens.
Assay [11] is described as follows: Shn3 3'UTR reporter inhibitors, dose response, cell-based, Clone20 osteoblasts, firefly luciferase, cherry-picked (AID 624132).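 Note: firefly luciferase luminescence from reporter carrying the Shn3 3'UTR in osteoblasts.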 The class given is functional.
A short description of assay [12]: HepG2 cell cytotoxicity, dose response, cytotoxicity control for Shn3 inhibitor project, CellTiter-Glo, cherry-picked (AID 624134). It counts as functional, cell-based.
The nature of assay [13]: control 3'UTR Renilla luciferase suppression, dose response, counter-screen for Shn3 inhibitor project, cell-based, Clone20-Shn3RL, cherry-picked (AID 624133). The class given is functional. For orientation: The purpose of a counterscreen is to sort out artefacts and off-target activity.

Cytochrome P450 2C19, sequence (P33261 whole entry): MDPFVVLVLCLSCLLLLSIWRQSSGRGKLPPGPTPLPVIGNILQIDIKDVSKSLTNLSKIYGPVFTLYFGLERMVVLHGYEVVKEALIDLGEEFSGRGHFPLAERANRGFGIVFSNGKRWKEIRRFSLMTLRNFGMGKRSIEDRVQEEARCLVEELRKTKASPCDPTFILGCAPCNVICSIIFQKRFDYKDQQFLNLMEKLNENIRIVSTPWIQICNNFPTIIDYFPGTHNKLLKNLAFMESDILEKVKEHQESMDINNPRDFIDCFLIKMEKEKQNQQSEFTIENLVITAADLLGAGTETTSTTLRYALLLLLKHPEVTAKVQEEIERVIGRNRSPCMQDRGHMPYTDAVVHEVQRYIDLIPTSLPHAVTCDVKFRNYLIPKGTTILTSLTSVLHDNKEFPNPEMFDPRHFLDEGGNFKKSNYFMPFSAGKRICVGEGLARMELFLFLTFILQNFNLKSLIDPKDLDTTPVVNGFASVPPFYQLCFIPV
Estrogen receptor beta, sequence (Q92731 whole entry): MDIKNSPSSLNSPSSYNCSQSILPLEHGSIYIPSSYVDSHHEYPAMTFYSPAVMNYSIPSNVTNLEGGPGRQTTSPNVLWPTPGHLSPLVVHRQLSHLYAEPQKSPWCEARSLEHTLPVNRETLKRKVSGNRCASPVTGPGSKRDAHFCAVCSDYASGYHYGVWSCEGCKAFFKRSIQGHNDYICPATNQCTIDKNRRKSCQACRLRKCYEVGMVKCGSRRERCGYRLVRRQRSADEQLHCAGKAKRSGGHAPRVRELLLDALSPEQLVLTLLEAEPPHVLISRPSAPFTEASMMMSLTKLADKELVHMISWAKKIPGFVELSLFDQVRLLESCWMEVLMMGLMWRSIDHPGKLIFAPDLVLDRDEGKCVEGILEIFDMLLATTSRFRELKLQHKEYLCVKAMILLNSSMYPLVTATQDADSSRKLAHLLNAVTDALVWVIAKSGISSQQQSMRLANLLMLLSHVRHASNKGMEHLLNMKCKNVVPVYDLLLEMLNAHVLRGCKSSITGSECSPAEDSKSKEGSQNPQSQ

On to `O=C(Nc1ccccn1)c1ccc2ccccc2n1`, for which the EC50 was > 260 µM (inactive) in assay [1] and > 67.5 µM (inactive) in [3]. The IC50 in assay [2] was > 67.5 µM (inactive).

Turning to `O=C(NCC1CCCO1)c1cc(-c2ccco2)nc2ccccc12` (stereo unspecified), the IC50 at Estrogen receptor beta was 26.4 µM (not active).

With `NCCC[C@@H](CC(=O)N[C@@H]1CCCC[C@H]1C(=O)N[C@H](CC(=O)N[C@@H](CCC(=O)O)CC(=O)O)Cc1ccccc1)NC(=O)C[C@H](CO)NC(=O)[C@@H]1CNCC[C@H]1N`, the AC50 at Cytochrome P450 2C9 was 39.8 µM (inconclusive).

`COc1ccc(C2NC(=O)NC3=C2CCc2ccccc23)cc1` (stereo unspecified): the EC50 in assay [4] is 8.31 µM (active); in assay [5], 9.83 µM (active); at Protein RecA it was 4.7 µM (active). For the same compound, the IC50 in [6] was 46.8 µM (active). In addition, the AC50 in assay [7] was > 120 µM (inactive).

`CCCOC(=O)c1ccc(Oc2c(C)n[nH]c2-c2ccc(O)cc2O)cc1`: the values for the EC50 in assay [8] and in [9] were 10.3 µM (active) and 13.7 µM (active), respectively.

For `CC(=O)OCC1OC(c2cc(C)cc(C)c2)C=CC1OC(C)=O` (stereo unspecified), on Cytochrome P450 2C19, the AC50 is 2.51 µM (inconclusive).

In the case of `CC(C)C[C@H](N)c1nnc(S(=O)(=O)Cc2ccc(F)cc2)o1`, the EC50 in assay [8] is 8.98 µM (active); in [9], 7.91 µM (active); at Protein RecA, 25.7 µM (active). Also, the AC50 in assay [10] was 4.78 µM (active); in assay [7], 1.4 µM (active); in assay [11] it was 9.02 µM (active); in [12], 27.4 µM (active); in assay [13], 22.1 µM (active).

In general, IC50 refers to the concentration needed to halve the response being measured.
